Measurements reported in patent US20080221134A1, “8-ALKYNYLXANTHINES AND DERIVATIVES” (priority 2006, published 2008).

Columns and labels:
Rat A2A AR = target: T1, Rat A2A AR (Rattus norvegicus, UniProt P30543); assay: Radioligand binding assay 1, rat A2A adenosine receptor; details: rat striatum, [3H]MSX-2
T1 construct: A2A adenosine receptors from rat striatum; from tissue; host or cells: rat striatum
Method: (§1) Rat brain preparations were used for A1- and A2A adenosine receptor (AR) and human recombinant cell samples for A1-, A2A- and A3 adenosine receptor radioligand binding studies. Affinity and selectivity was tested in displacement experiments with following radioligands: [^3H]CCPA for A1-adenosine receptors, [^3H]MSX-2 for A2A-receptors and [^3H]PSB-11 for A3-receptors. Results of these experiments are depicted in table 2b (human data) and table 2a (rat data). Radioligand binding test systems are e.g. generally described by Muller et al., Curr. Pharm. Des., 1996, 2, 501 and Weyler et al., ChemMedChem 2006, 1, 891 and references cited therein) These documents are incorporated herein by reference.

Rat A1 AR = target: T2, Rat A1 AR (Rattus norvegicus, UniProt P25099); assay: Radioligand binding assay 1, rat A1 adenosine receptor; details: rat cortex, [3H]CCPA
T2 construct: Rat brain preparations were used for A1- and A2A adenosine receptor (AR); from tissue; host or cells: rat cortex
T2 sequence (P25099 1-326): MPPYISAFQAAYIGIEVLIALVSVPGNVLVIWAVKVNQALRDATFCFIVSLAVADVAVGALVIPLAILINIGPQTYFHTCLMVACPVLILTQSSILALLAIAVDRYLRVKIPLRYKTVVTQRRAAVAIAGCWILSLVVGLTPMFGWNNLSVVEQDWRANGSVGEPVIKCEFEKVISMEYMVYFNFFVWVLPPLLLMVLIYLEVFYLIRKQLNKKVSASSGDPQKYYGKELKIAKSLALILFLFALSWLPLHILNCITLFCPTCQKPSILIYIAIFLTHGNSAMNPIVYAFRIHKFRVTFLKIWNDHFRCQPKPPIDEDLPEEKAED
Method: as §1

[1] = target: T3, A2A-adenosine receptor human recombinant (Homo sapiens, UniProt P29274); assay: Radioligand binding assay 1, human recombinant A2A adenosine receptor; details: human recombinant, [3H]MSX-2; read-out: A2A-adenosine receptor human recombinant [3H] MSX-2 Ki
T3 construct: expressed in transfected cells
T3 sequence (P29274 whole entry): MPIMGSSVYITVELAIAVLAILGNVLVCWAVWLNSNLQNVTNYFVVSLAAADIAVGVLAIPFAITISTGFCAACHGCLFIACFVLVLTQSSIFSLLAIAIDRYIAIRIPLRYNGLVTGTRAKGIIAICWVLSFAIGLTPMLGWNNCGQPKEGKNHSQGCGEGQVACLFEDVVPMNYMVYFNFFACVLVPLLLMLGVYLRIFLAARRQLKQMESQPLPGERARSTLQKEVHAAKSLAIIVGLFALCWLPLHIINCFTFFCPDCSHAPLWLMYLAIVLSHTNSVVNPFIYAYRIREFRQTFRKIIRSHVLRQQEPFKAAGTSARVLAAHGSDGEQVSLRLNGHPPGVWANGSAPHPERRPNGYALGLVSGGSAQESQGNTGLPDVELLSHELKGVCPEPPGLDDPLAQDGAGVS
Method: as §1

T1 sequence (P30543 whole entry): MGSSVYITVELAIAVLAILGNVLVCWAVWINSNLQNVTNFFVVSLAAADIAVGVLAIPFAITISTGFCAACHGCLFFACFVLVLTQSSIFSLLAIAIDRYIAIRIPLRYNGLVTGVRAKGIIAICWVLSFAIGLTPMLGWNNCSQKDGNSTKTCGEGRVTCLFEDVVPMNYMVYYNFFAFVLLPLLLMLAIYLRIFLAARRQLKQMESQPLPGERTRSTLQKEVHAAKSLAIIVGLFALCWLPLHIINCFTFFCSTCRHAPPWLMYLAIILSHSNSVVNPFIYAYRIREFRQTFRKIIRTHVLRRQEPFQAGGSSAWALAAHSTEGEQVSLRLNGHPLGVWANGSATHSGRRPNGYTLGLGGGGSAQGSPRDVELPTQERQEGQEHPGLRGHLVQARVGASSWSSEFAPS

Structure (SMILES)	Ki (Rat A2A AR)	Ki (Rat A1 AR)	Ki [1]
C#CCn1c(=O)c2c(nc(C#Cc3ccoc3)n2C)n(CC)c1=O	220 ± 21 nM	> 1000 nM	
C#CCn1c(=O)c2c(nc(C#Cc3ccc(OC)c(OC)c3)n2C)n(CCC=C)c1=O	34.9 ± 6.9 nM	176 ± 59 nM	
C#CCn1c(=O)[nH]c2nc(C#Cc3ccc(OC)c(OC)c3)n(C)c2c1=O [drawing 483]	15 ± 2 nM	≥ 10000 nM	
C#CCn1c(=O)c2c(nc(C#Cc3cccc(OC)c3)n2CC#CC)n(C)c1=O	36.2 ± 4.5 nM	96 ± 16.4 nM	
C#CCn1c(=O)c2c(nc(C#Cc3ccc(OC)c(OC)c3)n2C)n(CCC2CO2)c1=O (centres unmarked) [drawing 505]	19.2 ± 1.4 nM	64 ± 5.4 nM	
C#CCn1c(=O)c2c(nc(C#Cc3ccc(OC)c(OC)c3)n2C)n(CCCOP(=O)(O)O)c1=O [drawing 494]	37 ± 11 nM	136 ± 19 nM	
C#CCn1c(=O)c2c(nc(C#Cc3cccc(C)c3)n2C)n(CC)c1=O [drawing 486]	76.3 ± 17.1 nM	> 10000 nM	
C#CCn1c(=O)c2c(nc(C#Cc3cccc(OC)c3)n2C)n(CC=C)c1=O [drawing 490]	41.8 ± 4.3 nM	> 1000 nM	
C#CCn1c(=O)c2c(nc(C#Cc3ccc(OC)cc3)n2C)n(C)c1=O	123 ± 38 nM	> 10000 nM	
C#Cn1c(=O)c2c(nc(C#Cc3ccc(Cl)c(Cl)c3)n2C)n(C)c1=O	> 1000 nM	> 1000 nM	
C#CCn1c(=O)[nH]c2nc(C#Cc3cccc(OC)c3)n(C)c2c1=O	135 ± 28 nM	> 1000 nM	
C#CCn1c(=O)c2c(nc(C#Cc3ccc(C)cc3)n2C)n(C)c1=O	151 ± 8.4 nM	> 10000 nM	
C#CCn1c(=O)c2c(nc(C#Cc3ccc(OC)c(OC)c3)n2C)n(CCNC)c1=O	134 ± 16 nM	≥ 1000 nM	
C#CCn1c(=O)c2c(nc(C#Cc3ccc(OC)c(OC)c3)n2C)n(C[C@H](C)CO)c1=O	1.83 ± 0.38 nM	146 ± 46 nM	
C#CCn1c(=O)c2c(nc(C#Cc3ccc(OC)c(OC)c3)n2C)n(CC=C)c1=O	9.5 ± 1.6 nM	> 1000 nM	
C#CCn1c(=O)c2c(nc(C#Cc3cccc(Br)c3)n2C)n(C)c1=O [drawing 462]	151 ± 19 nM	≥ 10000 nM	
C#CCn1c(=O)c2c(nc(C#Cc3ccc(F)c(OC)c3)n2C)n(CC)c1=O [drawing 519]	43.1 ± 13.2 nM	> 1000 nM	
C#CCn1c(=O)c2c(nc(C#Cc3cccc(O)c3)n2C)n(C)c1=O [drawing 475]	173 ± 35 nM	425 ± 99 nM	
C#CCn1c(=O)c2c(nc(C#Cc3ccc(OC)c(OC)c3)n2C)n(CCOC)c1=O [drawing 498]	45.9 ± 13.5 nM	> 1000 nM	
C#CCn1c(=O)c2c(nc(C#Cc3ccc(OC)c(OC)c3)n2C)n(Cc2ccno2)c1=O	17.9 ± 5.5 nM	> 1000 nM	

The remaining lines, values ahead:

Ki (Rat A2A AR)	Ki (Rat A1 AR)	Ki [1]	Structure (SMILES)
10.2 ± 4.2 nM	> 1000 nM		C#CCn1c(=O)c2c(nc(C#Cc3ccc(OC)c(OC)c3)n2C)n(CC2CC2)c1=O [drawing 521]
		569 ± 10.7 nM	C#CCn1c(=O)c2c(nc(C#Cc3cccc(OC)c3)n2C)n(CCN(C)C)c1=O [drawing 594]
28.8 ± 4.1 nM	> 1000 nM		C#CCn1c(=O)c2c(nc(C#Cc3ccc(OC)c(OC)c3)n2C)n(Cc2cnc[nH]2)c1=O [drawing 527]
		52.3 ± 13.4 nM	C#CCn1c(=O)c2c(nc(C#Cc3ccc4c(c3)OCO4)n2C)n(C)c1=O [drawing 561]
		273 nM	C#CCn1c(=O)c2c(nc(C#Cc3ccc(OC)c(OC)c3)n2C)n(CC(C)=O)c1=O [drawing 592]
		165 ± 14 nM	C#CCn1c(=O)c2c(nc(C#Cc3cccc(OC)c3)n2C)n(CCO)c1=O [drawing 572]
132 ± 96 nM	> 1000 nM		C#CCn1c(=O)c2c(nc(C#Cc3ccc(Cl)c(Cl)c3)n2C)n(CC)c1=O [drawing 550]
18.5 ± 5 nM	> 1000 nM		C#CCn1c(=O)c2c(nc(C#Cc3ccc(OC)c(OC)c3)n2C)n(CC(C)=O)c1=O [drawing 525]
47 ± 2 nM	467 ± 6 nM		C#CCn1c(=O)c2c(nc(C#Cc3cccc(C)c3)n2C)n(CCCO)c1=O [drawing 534]
103 ± 21 nM	> 1000 nM		C#CCn1c(=O)c2c(nc(C#Cc3ccc(OC)c(OC)c3)n2C)n(Cc2cccs2)c1=O [drawing 520]
